In PubChem BioAssay (NCI):
Several values for one entry are separate records, joined by “and”; a condition that tells them apart may be missing. Identical values can stand only once.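 All cell lines were grown in 96-well plates and treated with compound for 48 hours. The concentration for 50% growth inhibition is given as GI50. TGI: total growth inhibition.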

Experiments:
Test in all cases: NCI-60 cell line screen, 48 h
[1] = tested on: HCT-15 colon
[2] = tested on: U251 CNS
[3] = tested on: UACC-257 melanoma
[4] = tested on: T-47D breast
[5] = tested on: MDA-MB-231 breast
[6] = tested on: TK-10 renal
[7] = tested on: SK-MEL-5 melanoma
[8] = tested on: ACHN renal
[9] = tested on: OVCAR-4 ovarian
[10] = tested on: OVCAR-3 ovarian

Row | Compound | GI50 [1] [µM] | TGI [1] | GI50 [2] [µM] | TGI [2] | GI50 [3] [µM] | TGI [3] | GI50 [4] [µM] | TGI [4] [µM] | GI50 [5] [µM] | TGI [5] | GI50 [6] [µM] | TGI [6] | GI50 [7] [µM] | TGI [7] | GI50 [8] [µM] | TGI [8] | GI50 [9] [µM] | TGI [9] | GI50 [10] | TGI [10]
1 | NS(=O)(=O)c1ccc(N2N=C(c3cccs3)CC2c2ccccc2O)cc1 (configuration not stated) | 1.35 | > 33.3 µM | 0.998 | 3.73 µM | 1.47 | 7.97 µM | 2.24 | 18.8 | 0.972 | 3.19 µM | 1.09 | 5.47 µM | 1.47 | 5.68 µM | 2.9 | 13 µM | 2.88 | > 33.3 µM | 0.933 µM | 2.64 µM
2 | CCc1c2c(nc3ccc(OCc4ccc(B5OC(C)(C)C(C)(C)O5)cc4)cc13)-c1cc3c(c(=O)n1C2)COC(=O)[C@]3(O)CC | 0.331 | > 100 µM | < 0.01 |  | 0.0477 | 1.26 µM | < 0.01 | > 100 | 1.1 | > 100 µM | 1.83 | > 100 µM | 0.0372 | 0.338 µM | 0.0278 | 2.07 µM | 0.192 | > 100 µM | 0.215 µM | > 100 µM
3 | CNc1ncc2cc(Oc3ccc(F)cc3F)c(=O)n(C)c2n1 | > 25 | > 25 µM | > 25 | > 25 µM | > 25 | > 25 µM | > 25 | > 25 | > 24.1 | > 25 µM | > 23.1 | > 25 µM | > 25 | > 25 µM | > 25 | > 25 µM | > 25 | > 25 µM | > 25 µM | > 25 µM
4 | CN(C)c1ncnc2c1ccn2C1OC(CO)C(O)C1O (configuration not stated) | 1.1 | > 66.2 µM | > 100 | > 100 µM | > 100 | > 100 µM | 0.0621 | 1.61 | 1.82 | 5.96 µM | 1.83 | > 100 µM | > 100 | > 100 µM | 3.18 | > 100 µM | 2.02 | 38.4 µM | 0.938 µM | > 34.6 µM
5 | COC(=O)Nc1nc2ccc(S(=O)(=O)c3ccc(NC(=O)Nc4cc(C(F)(F)F)ccc4F)cc3)cc2[nH]1 | > 25 | > 25 µM | > 25 | > 25 µM | > 25 | > 25 µM | > 25 | > 25 | > 25 | > 25 µM | > 25 | > 25 µM | > 25 | > 25 µM | > 25 | > 25 µM | > 25 | > 25 µM | > 25 µM | > 25 µM
6 | Oc1ccc(O)c2c1C1(Cl)C(Cl)=C(Cl)C2(Cl)C1(Cl)Cl | 4.15 | 26.1 µM | 5.76 | 20 µM | 3.97 | 17.4 µM | 5.19 | 24.3 | 4.65 | 23 µM | 4.96 | 27.7 µM | 5.09 | 17 µM | 4.43 | 21.3 µM | 8.32 | > 100 µM | 2.03 µM | 5.17 µM
7 | Nc1cc(-c2ccccc2)n(C(=O)Nc2ccc(Oc3ccccc3)cc2)n1 | > 100 | > 100 µM | 32.1 | > 100 µM | 84.5 | > 100 µM | 86.2 | > 100 | 27.3 | > 100 µM | 69.7 | > 100 µM | > 100 | > 100 µM | 34.9 | > 100 µM | 2.91 | 27 µM | 31.3 µM | > 100 µM
8 | O=C1NC(SCc2ccc(F)cc2)=N/C1=C/c1cccc(OCc2ccc(Cl)cc2)c1 | 55.3 | > 100 µM | 3.83 | 19.6 µM | > 100 | > 100 µM | 13.9 | > 100 | 24.6 | > 100 µM | 6.07 | 87.8 µM | > 100 | > 100 µM | 1.93 | 3.87 µM | 2.07 | 4.85 µM | 5.08 µM | 31.5 µM
9 | O=C1OC(OC/C(Br)=C(/Br)COC2OC(=O)C(Cl)=C2Cl)C(Cl)=C1Cl (configuration not stated) |  | 27.1 µM |  | 24.2 µM |  | 25.5 µM |  | 30.8 |  | 17 µM |  | 27 µM |  | 26.8 µM |  | 24.8 µM |  | 20.1 µM |  | 14.6 µM
10 | COC1C(O)C(C)OC(O[C@@H]2C[C@H]3CC[C@@H]4[C@H](CC[C@]5(C)[C@@H](C6=CC(=O)OC6)CC[C@]45O)[C@@]3(C)[C@H](O)C2)C1O (some centres not stated) |  | 0.327 µM |  | 12.5 µM |  | 1.07 µM |  | 0.817 |  | > 100 µM |  | 0.896 µM |  | 0.122 µM |  | 0.615 µM |  | 0.0379 µM |  | 0.0838 µM
11 | CCC(=O)c1c(C(F)(F)F)n([O-])c2ccccc2[n+]1=O | 1.09 | 4.88 µM | 2.16 | 13 µM | 10.8 | 35.3 µM | 2.27 | 31.1 | 2.23 | 7.93 µM | 2.81 | 14.5 µM | 0.961 | 2.64 µM | 1.09 | 3.13 µM | 5.65 | 31.2 µM | 1.74 µM | 6.35 µM
12 | CCN(CC)CCC(=O)O[C@H]1CC[C@H](CC(C)[C@H]2CC(=O)C(C)C=C(C)[C@H](OC(=O)CCN(CC)CC)C(OC)C(=O)[C@@H](C)CC(C)/C=C/C=C/C=C(C)C(OC)CC3CC[C@H](C)[C@](O)(O3)C(=O)C(=O)N3CCCCC3C(=O)O2)CC1OC (some centres not stated) | 0.0922 | 4.46 µM and 3.84 µM | 1.13 | 2.34 µM and 1.9 µM |  | 2.54 µM and 2.72 µM | 0.0267 | 4.12 | 1.86 | 8.14 µM and 1.74 µM | 1.4 | 6.12 µM and 4.25 µM | 0.0401 | 1.85 µM and 2.16 µM |  | 2.62 µM and 4.48 µM | 0.00163 | > 10 µM and 2.46 µM | 0.0165 µM and 0.00456 µM | 2.27 µM and 2.19 µM
13 | CCCCN(CCCC)CCC(O)c1cc2ccc(C(F)(F)F)cc2c2cc(C(F)(F)F)ccc12 (configuration not stated) | 2.15 | 7.29 µM | 1.79 | 3.75 µM | 2.15 | 5.96 µM | 3.09 | 12.9 | 1.33 | 3.16 µM | 2.28 | 4.62 µM | 1.76 | 3.15 µM | 2.94 | 12.6 µM | 3.5 | 13.1 µM | 2.89 µM | 7.55 µM
